In patent US12662479B2 (Foghorn Therapeutics Inc., priority 2020, dated 2026):

Key:
[1] = biological target: T1, HiBit-BRG1 fusion protein (Homo sapiens, UniProt P51532); assay: HiBiT-BRG1 cell-based degradation assay (Nano-Glo HiBiT Lytic Detection, 24 h); conditions: HeLa cells expressing HiBit-BRG1 and LgBit; for DC50: read-out: BRG1 HiBit Degradation IC50; for Dmax: HeLa, top dose 30 μM, read-out: BRG1 HiBit Degradation Maximum measured
T1 construct: expressed in transfected cells
In short: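 Degradation is scaled from DMSO-treated cells (0%) to cells given 2 μM of a known BRM/BRG1 degrader (100%). HeLa cells stably carrying HiBiT-BRG1 plus LgBiT (5000/well) were lysed with Nano-Glo HiBiT detection reagent, shaken 10 min at RT, and luminescence read.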

HiBit-BRM fusion protein = biological target: T2, HiBit-BRM fusion protein (Homo sapiens, UniProt P51531); assay: HiBiT-BRM cell-based degradation assay (Nano-Glo HiBiT Lytic Detection, 24 h); conditions: HeLa cells expressing HiBiT-BRM; for DC50: read-out: BRM HiBit Degradation IC50; for BRM HiBit Degradation Maximum measured: top dose 30 μM
T2 construct: expressed in transfected cells
T2 sequence (P51531 whole entry, the tested form may be a part): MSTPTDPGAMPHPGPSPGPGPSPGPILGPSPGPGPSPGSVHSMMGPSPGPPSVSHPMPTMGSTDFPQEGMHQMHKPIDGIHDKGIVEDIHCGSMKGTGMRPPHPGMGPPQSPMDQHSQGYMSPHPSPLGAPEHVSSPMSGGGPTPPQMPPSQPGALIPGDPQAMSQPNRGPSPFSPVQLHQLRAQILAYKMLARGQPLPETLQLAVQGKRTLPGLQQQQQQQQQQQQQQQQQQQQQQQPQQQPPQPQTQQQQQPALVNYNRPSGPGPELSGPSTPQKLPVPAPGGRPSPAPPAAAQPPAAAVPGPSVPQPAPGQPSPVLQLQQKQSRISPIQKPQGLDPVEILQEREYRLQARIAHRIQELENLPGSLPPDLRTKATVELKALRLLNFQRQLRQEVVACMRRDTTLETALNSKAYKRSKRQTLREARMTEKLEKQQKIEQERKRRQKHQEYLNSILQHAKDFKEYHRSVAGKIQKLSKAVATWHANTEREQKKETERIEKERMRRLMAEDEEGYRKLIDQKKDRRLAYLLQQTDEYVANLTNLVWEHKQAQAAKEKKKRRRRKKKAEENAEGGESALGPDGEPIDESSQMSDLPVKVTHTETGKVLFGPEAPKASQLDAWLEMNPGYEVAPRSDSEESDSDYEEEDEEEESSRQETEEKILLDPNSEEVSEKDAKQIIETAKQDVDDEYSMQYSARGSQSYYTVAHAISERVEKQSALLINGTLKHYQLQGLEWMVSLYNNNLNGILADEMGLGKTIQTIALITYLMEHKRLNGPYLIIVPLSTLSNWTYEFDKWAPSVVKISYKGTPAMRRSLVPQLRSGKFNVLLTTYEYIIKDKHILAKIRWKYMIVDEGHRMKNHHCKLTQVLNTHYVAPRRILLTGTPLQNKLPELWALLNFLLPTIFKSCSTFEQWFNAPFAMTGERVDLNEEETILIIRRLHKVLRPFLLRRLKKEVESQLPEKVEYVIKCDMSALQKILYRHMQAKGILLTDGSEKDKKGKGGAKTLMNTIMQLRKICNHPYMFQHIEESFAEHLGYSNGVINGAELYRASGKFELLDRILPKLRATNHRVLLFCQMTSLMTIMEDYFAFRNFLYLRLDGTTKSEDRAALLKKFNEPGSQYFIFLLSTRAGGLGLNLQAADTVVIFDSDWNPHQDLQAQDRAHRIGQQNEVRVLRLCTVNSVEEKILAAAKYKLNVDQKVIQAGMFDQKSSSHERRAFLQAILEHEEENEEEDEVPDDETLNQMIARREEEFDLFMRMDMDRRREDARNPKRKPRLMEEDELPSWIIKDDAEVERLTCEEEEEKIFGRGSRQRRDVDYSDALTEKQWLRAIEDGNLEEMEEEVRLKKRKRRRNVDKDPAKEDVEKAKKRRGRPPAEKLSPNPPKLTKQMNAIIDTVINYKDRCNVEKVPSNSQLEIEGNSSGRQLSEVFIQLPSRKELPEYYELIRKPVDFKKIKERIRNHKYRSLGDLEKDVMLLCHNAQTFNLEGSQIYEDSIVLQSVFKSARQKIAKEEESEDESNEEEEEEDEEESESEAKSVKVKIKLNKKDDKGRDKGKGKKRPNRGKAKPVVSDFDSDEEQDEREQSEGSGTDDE
In short: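 Percent BRM loss was derived from HiBiT luminescence relative to DMSO-treated cells and cells given 2 μM of a known BRM/BRG1 degrader. Treatment lasted 24 h in HiBiT-BRM HeLa cells, with a top final concentration of 30 μM.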

T1 sequence (P51532 whole entry, the tested form may be a part): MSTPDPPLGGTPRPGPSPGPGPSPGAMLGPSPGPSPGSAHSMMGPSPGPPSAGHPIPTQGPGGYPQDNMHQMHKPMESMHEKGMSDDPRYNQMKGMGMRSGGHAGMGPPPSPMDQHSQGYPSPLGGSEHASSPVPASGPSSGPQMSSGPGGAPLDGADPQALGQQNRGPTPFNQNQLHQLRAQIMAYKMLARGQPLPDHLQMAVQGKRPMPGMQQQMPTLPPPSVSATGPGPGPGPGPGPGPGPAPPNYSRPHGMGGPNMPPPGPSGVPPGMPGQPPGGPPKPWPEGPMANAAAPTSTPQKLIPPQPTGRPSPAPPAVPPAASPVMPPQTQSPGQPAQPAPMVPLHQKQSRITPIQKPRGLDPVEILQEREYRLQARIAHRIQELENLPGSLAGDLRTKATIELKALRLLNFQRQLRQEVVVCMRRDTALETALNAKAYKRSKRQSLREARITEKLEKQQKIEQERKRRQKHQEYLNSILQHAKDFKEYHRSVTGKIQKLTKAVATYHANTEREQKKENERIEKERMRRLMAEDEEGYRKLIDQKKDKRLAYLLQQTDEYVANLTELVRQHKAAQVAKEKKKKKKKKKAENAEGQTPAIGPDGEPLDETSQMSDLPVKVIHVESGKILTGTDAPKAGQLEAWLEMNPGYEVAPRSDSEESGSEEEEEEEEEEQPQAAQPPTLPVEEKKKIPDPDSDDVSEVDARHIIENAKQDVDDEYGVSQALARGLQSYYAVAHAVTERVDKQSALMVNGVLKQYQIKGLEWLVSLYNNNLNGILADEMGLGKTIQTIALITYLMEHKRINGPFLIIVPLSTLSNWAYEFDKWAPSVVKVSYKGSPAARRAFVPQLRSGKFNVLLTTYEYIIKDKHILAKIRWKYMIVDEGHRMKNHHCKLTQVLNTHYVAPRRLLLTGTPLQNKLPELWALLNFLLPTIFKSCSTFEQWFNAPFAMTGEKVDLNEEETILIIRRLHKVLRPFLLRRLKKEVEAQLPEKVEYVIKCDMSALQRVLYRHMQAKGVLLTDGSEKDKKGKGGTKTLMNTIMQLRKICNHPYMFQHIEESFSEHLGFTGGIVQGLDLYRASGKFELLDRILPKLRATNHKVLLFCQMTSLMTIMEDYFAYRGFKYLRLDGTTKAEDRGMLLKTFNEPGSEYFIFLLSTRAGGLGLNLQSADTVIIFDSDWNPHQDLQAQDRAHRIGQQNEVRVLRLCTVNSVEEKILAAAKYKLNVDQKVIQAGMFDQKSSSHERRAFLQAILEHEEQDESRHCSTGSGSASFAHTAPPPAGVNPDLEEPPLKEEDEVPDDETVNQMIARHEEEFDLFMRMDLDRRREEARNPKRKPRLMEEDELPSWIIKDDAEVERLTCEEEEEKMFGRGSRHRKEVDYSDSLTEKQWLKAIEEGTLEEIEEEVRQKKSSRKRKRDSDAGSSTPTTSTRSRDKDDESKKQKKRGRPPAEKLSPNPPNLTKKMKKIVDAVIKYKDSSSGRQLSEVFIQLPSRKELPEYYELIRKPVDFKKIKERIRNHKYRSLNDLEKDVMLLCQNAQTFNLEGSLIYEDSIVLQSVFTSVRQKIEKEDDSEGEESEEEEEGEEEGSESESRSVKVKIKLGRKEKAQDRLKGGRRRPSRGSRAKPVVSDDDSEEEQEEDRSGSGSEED

DC50 [1]	Dmax [1]	DC50 (HiBit-BRM fusion protein)	BRM HiBit Degradation Maximum measured (HiBit-BRM fusion protein)	Structure (SMILES)
1 to 10 µM	50 to 75%	> 10 µM	C (‘C’ = Maximum degradation <50%)	Cc1ncsc1-c1ccc(CNC(=O)[C@@H]2C[C@@H](O)CN2C(=O)[C@@H](NC(=O)CCCCC(=O)NCc2cccc(-c3cccc(-c4csc(NC(=O)CNC(=O)c5ccn(S(C)(=O)=O)c5)n4)c3)c2)C(C)(C)C)cc1 [Compound 48, N1-((S)-1-((2S,4R)-4-hydroxy-2-((4-(4-methylthiazol-5-yl)benzyl)carbamoyl)pyrrolidin-1-yl)-3,3-dimethyl-1-oxobutan-2-yl)-N6-((3′-(2-(2-(1-(methylsulfonyl)-1H-pyrrole-3-carboxamido)acetamido)thiazol-4-yl)-[1,1′-biphenyl]-3-yl)methyl)adipamide]
> 10 µM	< 50%	> 10 µM	C (‘C’ = Maximum degradation <50%)	CS(=O)(=O)n1ccc(C(=O)N[C@@H](CCOCCCC(=O)NCCOCCOCCNC(=O)COc2ccc3c(c2)C(=O)N(C2CCC(=O)NC2=O)C3=O)C(=O)Nc2nc(-c3ccccc3)cs2)c1 (stereo partly drawn) [Compound 274, (2S)-4-[3-[(2-[2-[2-(2-[[2-(2,6-dioxopiperidin-3-yl)-1,3-dioxoisoindol-5-yl]oxy]acetamido)ethoxy]ethoxy]ethyl)carbamoyl]propoxy]-2-[(1-methanesulfonylpyrrol-3-yl)formamido]-N-(4-phenyl-1,3-thiazol-2-yl)butanamide]
> 10 µM	< 50%	> 10 µM	C (‘C’ = Maximum degradation <50%)	CS(=O)(=O)n1ccc(C(=O)N[C@@H](CCCCNC(=O)CCOCCOCCOc2cccc3c2C(=O)N(C2CCC(=O)NC2=O)C3=O)C(=O)Nc2nc(-c3ccccc3)cs2)c1 (stereo partly drawn) [Compound 288, (2S)-6-[3-[2-(2-[[2-(2,6-dioxopiperidin-3-yl)-1,3-dioxoisoindol-4-yl]oxy]ethoxy)ethoxy]propanamido]-2-[(1-methanesulfonylpyrrol-3-yl)formamido]-N-(4-phenyl-1,3-thiazol-2-yl)hexanamide]
> 10 µM	< 50%	> 10 µM	C (‘C’ = Maximum degradation <50%)	CN(CC(=O)N1CC(COc2cccc3c2C(=O)N(C2CCC(=O)NC2=O)C3=O)C1)c1cc(-c2cccc(-c3csc(NC(=O)CNC(=O)c4ccn(S(C)(=O)=O)c4)n3)c2)ccn1 (centres unmarked) [Compound 27]
> 10 µM	< 50%	> 10 µM	C (‘C’ = Maximum degradation <50%)	Cc1c(C(=O)NCC(=O)Nc2nc(-c3cccc(-c4ccnc(N(C)CC(=O)NCCOCCOCCNc5cccc6c5C(=O)N(C5CCC(=O)NC5=O)C6=O)c4)c3)cs2)cn(S(=O)(=O)C(C)C)c1C (centres unmarked) [Compound 90, N-[2-[[4-[3-[2-[[2-[2-[2-[2-[[2-(2,6-dioxo-3-piperidyl)-1,3-dioxo-isoindolin-4-yl]amino]ethoxy]ethoxy]ethylamino]-2-oxo-ethyl]-methyl-amino]-4-pyridyl]phenyl]thiazol-2-yl]amino]-2-oxo-ethyl]-1-isopropylsulfonyl-4,5-dimethyl-pyrrole-3-carboxamide]
> 10 µM	< 50%	> 10 µM	C (‘C’ = Maximum degradation <50%)	CN(CC(=O)NCCCCCNc1ccc2c(c1)C(=O)N(C1CCC(=O)NC1=O)C2=O)c1cc(-c2cccc(-c3csc(NC(=O)CNC(=O)c4ccn(S(C)(=O)=O)c4)n3)c2)ccn1 (centres unmarked) [Compound 60]
> 10 µM	< 50%	> 10 µM	C (‘C’ = Maximum degradation <50%)	CS(=O)(=O)n1ccc(C(=O)N[C@@H](COCc2ccc(CNC(=O)CCCCCCOc3cccc4c3C(=O)N(C3CCC(=O)NC3=O)C4=O)cc2)C(=O)Nc2nc(-c3ccccc3)cs2)c1 (stereo partly drawn) [Compound 179, 7-[[2-(2,6-dioxopiperidin-3-yl)-1,3-dioxoisoindol-4-yl]oxy]-N-[(4-[[(2S)-2-[(1-methanesulfonylpyrrol-3-yl)formamido]-2-[(4-phenyl-1,3-thiazol-2-yl)carbamoyl]ethoxy]methyl]phenyl)methyl]heptanamide]
> 10 µM	< 50%	> 10 µM	C (‘C’ = Maximum degradation <50%)	CS(=O)(=O)n1ccc(C(=O)NCC(=O)Nc2nc(-c3cccc(-c4ccnc(N5CCN(C(=O)C6CC6CNC(=O)COc6ccc7c(c6)C(=O)N(C6CCC(=O)NC6=O)C7=O)CC5)c4)c3)cs2)c1 (centres unmarked) [Compound 39, N-[2-[[4-[3-[2-[4-[2-[[[2-[2-(2,6-dioxo-3-piperidyl)-1,3-dioxo-isoindolin-5-yl]oxyacetyl]amino]methyl]cyclopropanecarbonyl]piperazin-1-yl]-4-pyridyl]phenyl]thiazol-2-yl]amino]-2-oxo-ethyl]-1-methylsulfonyl-pyrrole-3-carboxamide]
0.1 to 1 µM	50 to 75%	> 10 µM	C (‘C’ = Maximum degradation <50%)	Cc1ncsc1-c1ccc(CNC(=O)[C@@H]2C[C@@H](O)CN2C(=O)[C@@H](NC(=O)CCCCCCCCC(=O)NCc2ccc(COC[C@H](NC(=O)c3ccn(S(C)(=O)=O)c3)C(=O)Nc3nc(-c4ccccc4)cs3)cc2)C(C)(C)C)cc1 [Compound 177, N-[(2S)-1-[(2S,4R)-4-hydroxy-2-([[4-(4-methyl-1,3-thiazol-5-yl)phenyl]methyl]carbamoyl)pyrrolidin-1-yl]-3,3-dimethyl-1-oxobutan-2-yl]-N′-[(4-[[(2S)-2-[(1-methanesulfonylpyrrol-3-yl)formamido]-2-[(4-phenyl-1,3-thiazol-2-yl)carbamoyl]ethoxy]methyl]phenyl)methyl]decanediamide]
> 10 µM	< 50%	> 10 µM	C (‘C’ = Maximum degradation <50%)	CS(=O)(=O)n1ccc(C(=O)NCC(=O)Nc2nc(C3CCCN(C(=O)CCOCCOCCOc4ccc5c(c4)C(=O)N(C4CCC(=O)NC4=O)C5=O)C3)cs2)c1 (centres unmarked) [Compound 144, N-[4-(1-{3-[2-(2-{[2-(2,6-dioxopiperidin-3-yl)-1,3-dioxo-2,3-dihydro-1H-isoindol-5-yl]oxy}ethoxy)ethoxy]propanoyl}piperidin-3-yl)-1,3-thiazol-2-yl]-2-[(1-methanesulfonyl-1H-pyrrol-3-yl)formamido]acetamide]
> 10 µM	< 50%	> 10 µM	C (‘C’ = Maximum degradation <50%)	CS(=O)(=O)n1ccc(C(=O)N[C@@H](COCc2ccc(C(=O)NCCNc3ccc4c(c3)C(=O)N(C3CCC(=O)NC3=O)C4=O)cc2)C(=O)Nc2nc(-c3ccccc3)cs2)c1 (stereo partly drawn) [Compound 240, N-(2-[[2-(2,6-dioxopiperidin-3-yl)-1,3-dioxoisoindol-5-yl]amino]ethyl)-4-[[(2S)-2-[(1-methanesulfonylpyrrol-3-yl)formamido]-2-[(4-phenyl-1,3-thiazol-2-yl)carbamoyl]ethoxy]methyl]benzamide]
> 10 µM	< 50%	> 10 µM	C (‘C’ = Maximum degradation <50%)	CN(CCNC(=O)COc1ccc2c(c1)C(=O)N(C1CCC(=O)NC1=O)C2=O)CCNC(=O)C1(c2cc(-c3cccc(-c4csc(NC(=O)CNC(=O)c5ccn(S(C)(=O)=O)c5)n4)c3)ccn2)CC1 (centres unmarked) [Compound 111, N-[2-[[4-[3-[2-[1-[2-[2-[[2-[2-(2,6-dioxo-3-piperidyl)-1,3-dioxo-isoindolin-5-yl]oxyacetyl]amino]ethyl-methylamino]ethylcarbamoyl]cyclopropyl]-4-pyridyl]phenyl]thiazol-2-yl]amino]-2-oxo-ethyl]-1-methylsulfonyl-pyrrole-3-carboxamide]
> 10 µM	< 50%	> 10 µM	C (‘C’ = Maximum degradation <50%)	Cc1ncsc1-c1ccc(CNC(=O)[C@@H]2C[C@@H](O)CN2C(=O)[C@@H](NC(=O)CCCCCCCNC(=O)CCCOC[C@H](NC(=O)c2ccn(S(C)(=O)=O)c2)C(=O)Nc2nc(-c3ccccc3)cs2)C(C)(C)C)cc1 [Compound 227, (2S,4R)-4-hydroxy-1-[(2S)-2-(8-[4-[(2S)-2-[(1-methanesulfonylpyrrol-3-yl)formamido]-2-[(4-phenyl-1,3-thiazol-2-yl)carbamoyl]ethoxy]butanamido]octanamido)-3,3-dimethylbutanoyl]-N-[[4-(4-methyl-1,3-thiazol-5-yl)phenyl]methyl]pyrrolidine-2-carboxamide]

Structure (SMILES)	DC50 [1]	Dmax [1]	DC50 (HiBit-BRM fusion protein)	BRM HiBit Degradation Maximum measured (HiBit-BRM fusion protein)
Cc1ncsc1-c1ccc(CNC(=O)[C@@H]2C[C@@H](O)CN2C(=O)[C@@H](NC(=O)CCCCCCC(=O)N(C)Cc2cc(-c3cccc(-c4csc(NC(=O)CNC(=O)c5ccn(S(C)(=O)=O)c5)n4)c3)ccn2)C(C)(C)C)cc1 [Compound 153, N-[(2S)-1-[(2S,4R)-4-hydroxy-2-([[4-(4-methyl-1,3-thiazol-5-yl)phenyl]methyl]carbamoyl)pyrrolidin-1-yl]-3,3-dimethyl-1-oxobutan-2-yl]-N′-([4-[3-(2-[2-[(1-methanesulfonylpyrrol-3-yl)formamido]acetamido]-1,3-thiazol-4-yl)phenyl]pyridin-2-yl]methyl)-N′-methyloctanediamide]	0.1 to 1 µM	> 75%	0.1 to 1 µM	B (‘B’ = Maximum degradation ≥50% and ≤75%)
